Test results: patent US20230219906A1, “MACROCYCLIC-2-AMINO-3-FLUORO-BUT-3-ENAMIDES AS INHIBITORS OF MCL-1” (Janssen Pharmaceutica NV, priority 2020, published 2023)
Where two headings read alike, the source gives them in different places.

Columns and labels:
[1] = molecular target: Myeloid Cell Leukemia 1(Mcl-1) (Homo sapiens, UniProt Q07820); assay: Terbium labeled Mcl-1 HTRF binding assay with Cy5-labeled BIM BH3 peptide; details: displacement of Cy5 Bim BH3 peptide; Ki=IC50/(1+[L]/Kd), [L]=8 nM, Kd=10 nM; 60 minutes at room temperature; read-out: Tb-MCL1 Ki
Sequence of Myeloid Cell Leukemia 1(Mcl-1) (Q07820 whole entry): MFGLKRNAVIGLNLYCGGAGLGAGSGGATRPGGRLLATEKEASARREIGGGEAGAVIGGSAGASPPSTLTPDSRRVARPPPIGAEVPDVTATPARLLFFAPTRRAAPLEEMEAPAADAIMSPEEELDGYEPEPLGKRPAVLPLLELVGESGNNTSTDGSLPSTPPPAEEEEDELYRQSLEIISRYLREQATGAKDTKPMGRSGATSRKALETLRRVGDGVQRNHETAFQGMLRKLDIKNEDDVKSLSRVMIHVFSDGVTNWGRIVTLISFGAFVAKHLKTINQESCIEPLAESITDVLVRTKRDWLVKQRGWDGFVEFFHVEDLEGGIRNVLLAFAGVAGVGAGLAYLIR
Method: Terbium labeled Myeloid Cell Leukemia 1(Mcl-1) homogeneous time-resolved fluorescence (HTRF) binding assay utilizing the BIM BH3 peptide (H2N—(C/Cy5Mal) WIAQELRRIGDEFN-OH) as the binding partner for Mcl-1.
This assay evaluated inhibition of the BH3 domain: Mcl-1 interaction by measuring the displacement of Cy5-labeled BIM BH3 peptide (H2N—(C/Cy5Mal) WIAQELRRIGDEFN-OH) in the HTRF assay format.
The following assay and stock buffers were prepared for use in the assay: (a) Stock buffer: 10 mM Tris-HCl, pH=7.5+150 mM NaCl, filtered, sterilized, and stored at 4° C.; and (b) 1X assay buffer, where the following ingredients were added fresh to stock buffer: 2 mM dithiothreitol (DTT), 0.0025% Tween-20, 0.1 mg/mL bovine serum albumin (BSA). The 1X Tb-Mcl-1+Cy5 Bim peptide solution was prepared by diluting the protein stock solution using the 1X assay buffer (b) to 25 pM Tb-Mcl-1 and 8 nM Cy5 Bim peptide.
Using the Acoustic ECHO, 100 nL of 100x test compound(s) were dispensed into individual wells of a white 384-well Perkin Elmer Proxiplate, for a final compound concentration of 1× and final DMSO concentration of 1%. Inhibitor control and neutral control (NC, 100 nL of 100% DMSO) were stamped into columns 23 and 24 of assay plate, respectively. Into each well of the plate was then dispensed 10 μL of the 1X Tb-Mcl-1+Cy5 Bim peptide solution. The plate was centrifuged with a cover plate at 1000 rpm for 1 minute, then incubated for 60 minutes at room temperature with plates covered.
The TR-FRET signal was read on an BMG PHERAStar FSX MicroPlate Reader at room temperature using the HTRF optic module (HTRF: excitation: 337 nm, light source: laser, emission A: 665 nm, emission B: 620 nm, integration start: 60 μs, integration time: […]).
The BMG PHERAStar FSX MicroPlate Reader was used to measure fluorescence intensity at two emission wavelengths—665 nm and 620 nm—and report relative fluorescence units (RFU) for both emissions, as well as a ratio of the emissions (665 nm/620 nm)*10,000. The RFU values were normalized to percent inhibition as follows:
% inhibition=(((NC−IC)−(compound−IC))/(NC−IC))*100
where IC (inhibitor control, low signal)= mean signal of 1X Tb-MCl-1+Cy5 Bim peptide+inhibitor control or 100% inhibition of Mcl-1; NC (neutral control, high signal)= mean signal 1X Tb-MCl-1+Cy5 Bim peptide with DMSO only or 0% inhibition An 11-point dose response curve was generated to determine IC50 values (using GenData) based on the following equation:
Y=Bottom+(Top−Bottom)/(1+10∧((log IC50−X)*HillSlope))
where Y=% inhibition in the presence of X inhibitor concentration; Top=100% inhibition derived from the IC (mean signal of Mcl-1+inhibitor control); Bottom=0% inhibition derived from the NC (mean signal of Mcl-1+DMSO); Hillslope=Hill coefficient; and IC50=concentration of compound with 50% inhibition in relation to top/neutral control (NC).
In this assay [L]=8 nM and Kd=10 nM

[2] = system: MOLP-8 human multiple myeloma cell line; assay: Caspase-Glo 3/7 apoptosis induction assay in MOLP-8 cells; assay type: cell-based; details: caspase-3/7 activity, 2 hours at 37° C., averaged over all runs on all batches, read-out: MOLP8 AC50
From the text: MCL-1 is a regulator of apoptosis and is highly over-expressed in tumor cells that escape cell death. The assay evaluates the cellular potency of small-molecule compounds targeting regulators of the apoptosis pathway, primarily MCL-1, Bfl-1, Bcl-2, and other proteins of the Bcl-2 family. Protein-protein inhibitors disrupting the interaction of anti-apoptotic regulators with BH3-domain proteins initiate apoptosis.
The Caspase-Glo® 3/7 Assay is a luminescent assay that measures caspase-3 and −7 activities in purified enzyme preparations or cultures of adherent or suspension cells. The assay provides a proluminescent caspase-3/7 substrate, which contains the tetrapeptide sequence DEVD. This substrate is cleaved to release aminoluciferin, a substrate of luciferase used in the production of light. Addition of the single Caspase-Glo® 3/7 Reagent in an “add-mix-measure” format results in cell lysis, followed by caspase cleavage of the substrate and generation of a “glow-type” luminescent signal.
This assay uses the MOLP-8 human multiple myeloma cell line, which is sensitive to MCL-1 inhibition.
Cell cultures were maintained between 0.2 and 2.0×10^6 cells/mL. The cells were harvested by collection in 50 mL conical tubes. The cells were then pelleted at 500 g for 5 mins before removing supernatant and resuspension in fresh pre-warmed culture medium. The cells were counted and diluted as needed.
The assay reagent was prepared by transferring the buffer solution to the substrate vial and mixing. The solution may be stored for up to 1 week at 4° C. with negligible loss of signal.
Compounds were delivered in assay-ready plates (Proxiplate) and stored at −20° C. Assays always include 1 reference compound plate containing reference compounds. The plates were spotted with 40 nL of compounds (0.5% DMSO final in cells; serial dilution; […] highest conc. 1/3 dilution, 10 doses, duplicates). The compounds were used at room temperature and 4 μL of pre-warmed media was added to all wells except column 2 and 23. The negative control was prepared by adding 1% DMSO in media. The positive control was prepared by adding the appropriate positive control compound in final concentration of […] in media. The plate was prepared by adding 4 μL negative control to column 23, 4 μL positive control to column 2 and 4 μL cell suspension to all wells in the plate. The plate with cells was then incubated at 37° C. for 2 hours. The assay signal reagent is the Caspase-Glo solution described above, and 8 μL was added to all wells. The plates were then sealed and measured after 30 minutes.
The activity of a test compound was calculated as percent change in apoptosis induction as follows:
% Effect (AC50)=100−(sample-LC)/(HC-LC)*100
% Control=(sample/HC)*100
% Control min=(sample-LC)/(HC-LC)*100

SMILES	Ki [1]	AC50 ([2]; Homo sapiens, MOLP-8, 2 h)	AC50 [2]
COC1(C(F)(F)F)CN(C(=O)[C@H]2/C(F)=C/C[C@H](C)[C@@H](C)S(=O)(=O)NC(=O)c3ccc4c(c3)N(C[C@@H]3CCCN32)C[C@@]2(CCCc3cc(Cl)ccc32)CO4)C1 [Compound 42]	0.374 nM	463 nM	–
C[C@@H]1[C@@H](C)C/C=C(\F)[C@H](C(=O)N(C)CC2CCCCO2)N2CCC[C@H]2CN2C[C@@]3(CCCc4cc(Cl)ccc43)COc3ccc(cc32)C(=O)NS1(=O)=O (single isomer, unassigned) [Compound 71]	0.066 nM	94.2 nM	–
C[C@@H]1[C@@H](C)C/C=C(\F)[C@H](C(=O)N(C)Cc2ncnn2C)N2CCC[C@H]2CN2C[C@@]3(CCCc4cc(Cl)ccc43)COc3ccc(cc32)C(=O)NS1(=O)=O [Compound 81]	0.068 nM	537 nM	–
C[C@@H]1[C@@H](C)C/C=C(\F)[C@H](C(=O)N2CCCC3(C2)CC3(F)F)N2CCC[C@H]2CN2C[C@@]3(CCCc4cc(Cl)ccc43)COc3ccc(cc32)C(=O)NS1(=O)=O (stereo partly shown) [Compound 29]	0.494 nM	408 nM	–
C[C@@H]1[C@@H](C)C/C=C(\F)[C@H](C(=O)N(C)CC2CCCOC2)N2CCC[C@H]2CN2C[C@@]3(CCCc4cc(Cl)ccc43)COc3ccc(cc32)C(=O)NS1(=O)=O (single isomer, unassigned) [Compound 64]	0.083 nM	74.7 nM	–
COC1CN(C(=O)[C@H]2/C(F)=C/C[C@H](C)[C@@H](C)S(=O)(=O)NC(=O)c3ccc4c(c3)N(C[C@@H]3CCCN32)C[C@@]2(CCCc3cc(Cl)ccc32)CO4)C1 [Compound 25]	0.072 nM	154 nM	–
COCCN(CCOC)C(=O)[C@H]1/C(F)=C/C[C@H](C)[C@@H](C)S(=O)(=O)NC(=O)c2ccc3c(c2)N(C[C@@H]2CCCN21)C[C@@]1(CCCc2cc(Cl)ccc21)CO3 [Compound 39]	0.081 nM	19.7 nM	–
C[C@@H]1[C@@H](C)C/C=C(\F)[C@H](C(=O)N(C)CC2CCCOC2)N2CCC[C@H]2CN2C[C@@]3(CCCc4cc(Cl)ccc43)COc3ccc(cc32)C(=O)NS1(=O)=O (single isomer, unassigned) [Compound 65]	0.062 nM	–	56.7 nM
COCCOCCN(C)C(=O)[C@H]1/C(F)=C/C[C@H](C)[C@@H](C)S(=O)(=O)NC(=O)c2ccc3c(c2)N(C[C@@H]2CCCN21)C[C@@]1(CCCc2cc(Cl)ccc21)CO3 [Compound 19]	0.045 nM	79.3 nM	–
CO[C@@H]1CCN(C(=O)[C@H]2/C(F)=C/C[C@H](C)[C@@H](C)S(=O)(=O)NC(=O)c3ccc4c(c3)N(C[C@@H]3CCCN32)C[C@@]2(CCCc3cc(Cl)ccc32)CO4)C1 [Compound 52]	0.036 nM	90.5 nM	–
C[C@@H]1[C@@H](C)C/C=C(\F)[C@H](C(=O)N(C)Cc2ccnn2C)N2CCC[C@H]2CN2C[C@@]3(CCCc4cc(Cl)ccc43)COc3ccc(cc32)C(=O)NS1(=O)=O [Compound 34]	0.077 nM	76.9 nM	–
C[C@@H]1[C@@H](C)C/C=C(\F)[C@H](C(=O)N2CCN(C)CC2)N2CCC[C@H]2CN2C[C@@]3(CCCc4cc(Cl)ccc43)COc3ccc(cc32)C(=O)NS1(=O)=O [Compound 13]	0.059 nM	297 nM	–
C[C@@H]1[C@@H](C)C/C=C(\F)[C@H](C(=O)N2CCC(F)(F)CC2)N2CCC[C@H]2CN2C[C@@]3(CCCc4cc(Cl)ccc43)COc3ccc(cc32)C(=O)NS1(=O)=O [Compound 43]	0.438 nM	399 nM	–
C[C@@H]1[C@@H](C)C/C=C(\F)[C@H](C(=O)N2CCC(CC#N)CC2)N2CCC[C@H]2CN2C[C@@]3(CCCc4cc(Cl)ccc43)COc3ccc(cc32)C(=O)NS1(=O)=O [Compound 46]	0.091 nM	329 nM	–
C[C@@H]1[C@@H](C)C/C=C(\F)[C@H](C(=O)N2CCOC3(CCC3)C2)N2CCC[C@H]2CN2C[C@@]3(CCCc4cc(Cl)ccc43)COc3ccc(cc32)C(=O)NS1(=O)=O [Compound 26]	0.115 nM	153 nM	–
C[C@@H]1[C@@H](C)C/C=C(\F)[C@H](C(=O)N(C)CCN2CCOCC2)N2CCC[C@H]2CN2C[C@@]3(CCOc4cc(Cl)ccc43)COc3ccc(cc32)C(=O)NS1(=O)=O [Compound 78]	0.016 nM	547 nM	–
C[C@@H]1[C@@H](C)C/C=C(\F)[C@H](C(=O)N2CCN(C)C3(CC3)C2)N2CCC[C@H]2CN2C[C@@]3(CCCc4cc(Cl)ccc43)COc3ccc(cc32)C(=O)NS1(=O)=O [Compound 83]	0.061 nM	252 nM	–
C[C@@H]1[C@@H](C)C/C=C(\F)[C@H](C(=O)N(C)CC2COCCO2)N2CCC[C@H]2CN2C[C@@]3(CCCc4cc(Cl)ccc43)COc3ccc(cc32)C(=O)NS1(=O)=O (single isomer, unassigned) [Compound 54]	0.042 nM	76.4 nM	–
C[C@@H]1[C@@H](C)C/C=C(\F)[C@H](C(=O)N(C)CC2OCCO2)N2CCC[C@H]2CN2C[C@@]3(CCCc4cc(Cl)ccc43)COc3ccc(cc32)C(=O)NS1(=O)=O [Compound 79]	0.038 nM	106 nM	–
C[C@@H]1[C@@H](C)C/C=C(\F)[C@H](C(=O)N(C)C2CCCOC2)N2CCC[C@H]2CN2C[C@@]3(CCCc4cc(Cl)ccc43)COc3ccc(cc32)C(=O)NS1(=O)=O (single isomer, unassigned) [Compound 63]	0.041 nM	–	57.4 nM
C[C@@H]1[C@@H](C)C/C=C(\F)[C@H](C(=O)N(C)CCn2cccn2)N2CCC[C@H]2CN2C[C@@]3(CCCc4cc(Cl)ccc43)COc3ccc(cc32)C(=O)NS1(=O)=O [Compound 61]	0.074 nM	166 nM	–
C[C@@H]1[C@@H](C)C/C=C(\F)[C@H](C(=O)N2CCO[C@@H](C)C2)N2CCC[C@H]2CN2C[C@@]3(CCCc4cc(Cl)ccc43)COc3ccc(cc32)C(=O)NS1(=O)=O [Compound 6]	–	84.3 nM	–
